{"source": "paper PMC10710422", "about": "“Senescence-associated 13-HODE production promotes age-related liver steatosis by directly inhibiting catalase activity” (Nature Communications, 2023)", "key": {"[1]": {"target": "T1, Recombinant mouse catalase protein (CAT) (Mus musculus, UniProt P24270)", "T1 construct": "commercial recombinant protein, immobilised on CM5 chip", "T1 sequence (P24270 2-527)": "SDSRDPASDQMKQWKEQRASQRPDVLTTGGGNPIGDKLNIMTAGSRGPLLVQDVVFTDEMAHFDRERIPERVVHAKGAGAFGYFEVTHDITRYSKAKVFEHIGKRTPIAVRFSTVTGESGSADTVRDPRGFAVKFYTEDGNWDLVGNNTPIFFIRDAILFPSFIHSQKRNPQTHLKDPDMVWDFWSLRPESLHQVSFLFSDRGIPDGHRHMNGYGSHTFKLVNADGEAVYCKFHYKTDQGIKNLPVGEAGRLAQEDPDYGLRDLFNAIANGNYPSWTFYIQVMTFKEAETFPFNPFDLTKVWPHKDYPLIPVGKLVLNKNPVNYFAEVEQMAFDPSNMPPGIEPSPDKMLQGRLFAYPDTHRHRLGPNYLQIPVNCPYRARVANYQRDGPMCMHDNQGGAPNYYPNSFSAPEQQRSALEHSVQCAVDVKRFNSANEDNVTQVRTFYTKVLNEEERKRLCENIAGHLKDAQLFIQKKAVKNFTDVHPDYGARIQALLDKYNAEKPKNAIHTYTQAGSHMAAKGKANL", "assay": "surface plasmon resonance (Biacore T200), steady-state affinity", "assay_type": "binding"}, "[2]": {"target": "T2, recombinant human CAT protein (Homo sapiens, UniProt P04040)", "T2 construct": "commercial recombinant protein", "T2 sequence (P04040 2-527)": "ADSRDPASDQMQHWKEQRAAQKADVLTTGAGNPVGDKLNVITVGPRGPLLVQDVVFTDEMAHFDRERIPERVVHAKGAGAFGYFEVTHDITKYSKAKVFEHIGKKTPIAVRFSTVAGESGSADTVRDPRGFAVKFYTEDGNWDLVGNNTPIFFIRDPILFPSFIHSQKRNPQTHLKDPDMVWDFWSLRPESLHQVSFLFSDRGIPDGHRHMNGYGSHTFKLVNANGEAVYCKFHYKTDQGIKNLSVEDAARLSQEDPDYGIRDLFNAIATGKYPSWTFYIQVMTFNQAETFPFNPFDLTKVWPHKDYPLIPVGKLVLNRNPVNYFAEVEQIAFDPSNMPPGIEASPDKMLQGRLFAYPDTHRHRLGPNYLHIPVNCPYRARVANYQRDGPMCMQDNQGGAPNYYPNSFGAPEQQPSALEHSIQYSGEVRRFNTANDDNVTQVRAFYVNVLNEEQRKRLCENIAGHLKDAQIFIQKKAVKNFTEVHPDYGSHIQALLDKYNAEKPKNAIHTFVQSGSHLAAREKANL", "assay": "catalase activity kit", "assay_type": "biochemical", "settings": "20 min preincubation with 1 μM 13-HODE, room temperature not stated"}, "[3]": {"target": "the molecule itself", "assay": "cross-linking; primary mouse hepatocytes treated with or without 1 uM 13-HODE for 6 h, then 100 uM DSS crosslinker for 1 h before protein extraction; western blot for CAT tetramer and monomer; monomer to tetramer"}}}
{"molecule": "CCCCC[C@H](O)/C=C/C=C\\CCCCCCCC(=O)O", "note": "[13(S)-HODE]", "values": [{"measurement": "Kd", "setting": "[1]", "value": 2420, "unit": "nM"}]}
{"molecule": "CCCCCC(O)/C=C/C=C\\CCCCCCCC(=O)O", "note": "(stereo not drawn) [13-HODE]", "values": [{"measurement": "CAT activity at 1 μM", "setting": "[2]", "value": "incubated recombinant CAT protein with 13-HODE and found that it inhibited CAT activity in vitro"}]}
{"molecule": "Catalase (CAT) (enzyme, UniProt P24270 1-527, looked up, Catalase, mouse, endogenous in primary hepatocytes of C57BL/6 mice; Detected by western blot as monomer and tetramer after DSS cross-linking; source: endogenous, primary mouse hepatocytes (cross-linked in cells before protein extraction)) MSDSRDPASDQMKQWKEQRASQRPDVLTTGGGNPIGDKLNIMTAGSRGPLLVQDVVFTDEMAHFDRERIPERVVHAKGAGAFGYFEVTHDITRYSKAKVFEHIGKRTPIAVRFSTVTGESGSADTVRDPRGFAVKFYTEDGNWDLVGNNTPIFFIRDAILFPSFIHSQKRNPQTHLKDPDMVWDFWSLRPESLHQVSFLFSDRGIPDGHRHMNGYGSHTFKLVNADGEAVYCKFHYKTDQGIKNLPVGEAGRLAQEDPDYGLRDLFNAIANGNYPSWTFYIQVMTFKEAETFPFNPFDLTKVWPHKDYPLIPVGKLVLNKNPVNYFAEVEQMAFDPSNMPPGIEPSPDKMLQGRLFAYPDTHRHRLGPNYLQIPVNCPYRARVANYQRDGPMCMHDNQGGAPNYYPNSFSAPEQQRSALEHSVQCAVDVKRFNSANEDNVTQVRTFYTKVLNEEERKRLCENIAGHLKDAQLFIQKKAVKNFTDVHPDYGARIQALLDKYNAEKPKNAIHTYTQAGSHMAAKGKANL", "values": [{"measurement": "stoichiometry N", "setting": "[3]", "value": 4}]}
